According to ChEMBL document CHEMBL1144507, “Synthesis and antifungal activity of (Z)-5-arylidenerhodanines” (2007):

Legend:
[1] = tested on: Cryptococcus neoformans; assay: Antifungal activity against Cryptococcus neoformans ATCC 32264 after 48 hrs; assay type: functional; conditions: ATCC 32264, 48 h
[2] = tested on: Aspergillus flavus; assay: Antifungal activity against Aspergillus flavus ATCC 9170 after 48 hrs; assay type: functional; conditions: ATCC 9170, 48 h
[3] = tested on: Aspergillus fumigatus; assay: Antifungal activity against Aspergillus fumigatus ATCC 26934 after 48 hrs; assay type: functional; conditions: ATCC 26934, 48 h
[4] = tested on: Aspergillus niger; assay: Antifungal activity against Aspergillus niger ATCC 9029 after 48 hrs; assay type: functional; conditions: ATCC 9029, 48 h
[5] = tested on: Saccharomyces cerevisiae; assay: Antifungal activity against Saccharomyces cerevisiae ATCC 9763 after 48 hrs; assay type: functional; conditions: ATCC 9763, 48 h
[6] = tested on: Candida albicans; assay: Antifungal activity against Candida albicans ATCC 10231 after 48 hrs; assay type: functional; conditions: ATCC 10231, 48 h
[7] = tested on: Trichophyton benhamiae; assay: Antifungal activity against Trichophyton mentagrophytes ATCC 9972 after 48 hrs; assay type: functional, Arthroderma benhamiae; conditions: ATCC 9972, 48 h
[8] = tested on: Nannizzia gypsea; assay: Antifungal activity against Microsporum gypseum C115 after 48 hrs; assay type: functional
[9] = tested on: Trichophyton rubrum; assay: Antifungal activity against Trichophyton rubrum C113 after 48 hrs; assay type: functional

- MIC [1]: > 250 µg/mL
- MIC [2]: > 250 µg/mL
- MIC [3]: > 250 µg/mL
- MIC [4]: > 250 µg/mL
- MIC [5]: > 250 µg/mL
- MIC [6]: > 250 µg/mL
- MIC [7]: > 250 µg/mL
- MIC [8]: > 250 µg/mL
- MIC [9]: > 250 µg/mL
SMILES: O=C1NC(=S)S/C1=C\c1ccc2c(c1)OCO2
